Assay results reported in BindingDB's records for doi:10.7270/Q22F7KMG (Eli Lilly, 1995).

Key:
[1] = biological target: T1, Dimer of Gag-Pol polyprotein [489-587] (Human immunodeficiency virus 1, UniProt P12497); assay: Protease Inhibition Assay; settings: pH 5.5; 22 °C
T1 construct: 489-587
From the text: In the presence of HIV-l protease, the substrate is rapidly cleaved into two parts. The biotinylated amino terminal fragment binds to the avidin Pandex beads while the FITC-containing carboxy1 terminal fragment is removed through the membrane.

[2] = biological target: T2, Gag-Pol polyprotein [489-587] (Human immunodeficiency virus 1, UniProt P04585)
T2 construct: 489-587

Structure (SMILES)	IC50 [1]	IC50 [2]
CC(C)(C)NC(=O)[C@@H]1C[C@@H]2SCC[C@@H]2CN1C[C@@H](O)[C@H](Cc1ccccc1)NC(=O)[C@@H](CS(=O)(=O)c1ccc2ccccc2c1)NC(=O)C(F)(F)F [(3aR,6S,7aS)-N-tert-butyl-5-[(2R,3S)-2-hydroxy-3-[(2S)-3-(naphthalene-2-sulfonyl)-2-(2,2,2-trifluoroacetamido)propanamido]-4-phenylbutyl]-octahydrothieno[3,2-c]pyridine-6-carboxamide]	< 0.2 nM	< 0.2 nM
CC(C)(C)NC(=O)[C@@H]1C[C@@H]2SCC[C@@H]2CN1C[C@@H](O)[C@H](Cc1ccccc1)NC(=O)[C@@H](CS(=O)(=O)c1ccc2ccccc2c1)NS(C)(=O)=O [(3aR,6S,7aS)-N-tert-butyl-5-[(2R,3S)-2-hydroxy-3-[(2S)-2-methanesulfonamido-3-(naphthalene-2-sulfonyl)propanamido]-4-phenylbutyl]-octahydrothieno[3,2-c]pyridine-6-carboxamide]	< 0.2 nM	< 0.2 nM
CC(C)(C)NC(=O)[C@@H]1C[C@@H]2SCC[C@@H]2CN1C[C@@H](O)[C@H](Cc1ccccc1)NC(=O)[C@@H](CS(=O)(=O)c1ccc(F)cc1)NC(=O)C(F)(F)F [(3aR,6S,7aS)-N-tert-butyl-5-[(2R,3S)-3-[(2S)-3-[(4-fluorobenzene)sulfonyl]-2-(2,2,2-trifluoroacetamido)propanamido]-2-hydroxy-4-phenylbutyl]-octahydrothieno[3,2-c]pyridine-6-carboxamide]	< 0.2 nM	< 0.2 nM
